# Assay results taken from patent publication US20050100891A1, “Gene expression profile for KSHV infection and methods for treating same” (priority 2000, published 2005).
# “Also recorded” adds a separate entry of the source.
# Tests used:
# ORF 65 (lytic gene) = assay: RT-PCR of late (lytic) gene ORF 65 in PMA-induced KSHV-infected DMVEC; format: cell-based; conditions: for late gene (ORF 65) expression: compound 1 hour before PMA, 48 hours, concentration not given
# Experimental: (§1) KSHV genes ORF 64 and K12 (kaposin) were used as reverse transcriptase PCR (RT-PCR) templates as described previously^(43). ORF 65 sequences were amplified with primers 5-[…] (SEQ ID NO: 5) and 5′-[…] (SEQ ID NO: 6). Cellular genes (HPRT, GAPDH, or -actin) were amplified from each sample as a control for cDNA synthesis. PCR products were visualized following electrophoresis on agarose-ethidium bromide gels.
# (§2) Cells were treated with inhibitory compounds or peptides for one hour and lytic replication was induced by PMA treatment for 48 hours. Ganciclovir was used as control compound for inhibition of KSHV-replication and late gene expression^(10). After 48 hours, cells were harvested and expression of the latent gene K12 as well as the late gene ORF 65 was analyzed by RT-PCR. For control, expression of cellular genes α-actin or HPRT was monitored. […] However, both Ht31 and Haloperidol inhibited late gene expression, but not latent gene expression. Since both inhibitors potentially interfere with PKC signaling, we examined whether Ht31 or Haloperidol would inhibit the PMA-mediated induction of immediate early genes. […] In addition, the peptide Ht-31 inhibits the association between A kinase anchoring proteins (AKAPs) and PKA (21, 64). […] Therefore we conclude that the signal transduction pathways regulated by the type I sigma receptor and AKAPs are required for lytic progression of KSHV.
# There is no specific inhibitor of Gravin identified, however the Ht-31 peptide derived from the PKA R-II binding domain of the human thyroid AKAP inhibits the AKAP/PKA interactions in vivo and in vitro ^(21, 64). A stearated version of this peptide is membrane permeable and can block the AKAP/PKA interaction in tissue culture. A requirement for PKA signaling can be inferred from the up-regulation of Gravin, and to further investigate the requirement for the AKAP/PKA interaction for KSHV late gene expression, infected and uninfected cells were treated with stearated Ht-31 at two concentrations (FIG. 7B). […] A stearated control peptide that is unable to interact with PKA, Ht-31P, had no effect on late gene expression (FIG. 7B, lanes 4-5). […] It is not possible to conclude whether the inhibitory effect of Ht-3 1 occurs through Gravin or any other AKAP, since Ht-31 inhibits a wide range of AKAP/PKA interactions.
# (§3) The type I Sigma receptor is antagonized by the antipsychotic drug Haloperidol^(66). To investigate the requirement of Sigma receptor function for late gene expression, cells were treated with 5 μM Haloperidol for 1 hour prior to PMA addition. […] The inhibition of late gene expression was more complete with Haloperidol than with Ganciclovir (FIG. 7D, lanes 5-6). In contrast, the purine […] phosphorylase inhibitor 8-aminoguanosine (8-AMG) had no effect on viral gene expression (FIG. 7D, lane 4).
# immediate early gene K3 = assay: PMA-mediated induction of immediate early gene K3; format: cell-based, KSHV
# K12 (latent gene) = assay: RT-PCR of latent gene K12 in PMA-induced KSHV-infected DMVEC; format: cell-based
# Experimental: as §1, §2, §3
# Epstein-Barr Virus (EBV) = conditions: cited from earlier work
# mock-infected DMVEC = assay: XTT-based proliferation assay, response to exogenous SCF; format: cell-based, human
# Experimental: (§4) Proliferation of mock and KSHV-infected DMVEC, and the SCLC line HTB-172, was quantitated using an XTT-based assay. Cells were added to Primaria 96 well trays (Becton-Dickinson) at 1×104 or 5×10^4 cells/well. […] XTT (Roche, Molecular Biochemicals, Indianapolis, Ind.) was added 48 hours later according to the manufacturers instructions. Absorbance was read after 4 to 6 hours on a microplate reader. The HTB-172 line was obtained from the American Type Culture Collection (ATCC, Rockville, Md.).
# To examine whether KSHV-induced up-regulation of c-Kit had functional consequences, we tested whether the mitogenic response of DMVEC to exogenous SCF was enhanced following KSHV infection. Mock- and KSHV-infected DMVEC were cultured in growth factor depleted medium in the absence and presence of recombinant SCF and proliferation was measured using an XTT-based dye reduction assay^(112). […] In mock-infected cultures, the increase over basal proliferation in the […] of recombinant SCF was never more than 40%, while proliferation of KSHV-infected DMVEC was increased by as much as 85%. During KS disease, an enhanced capacity of KSHV-infected endothelial cells to respond to SCF produced by adjacent endothelial cells, or by macrophages and mast cells infiltrating the KS lesion, would promote more rapid growth of virus infected cells.
# KSHV-infected DMVEC [1] = assay: as above; format: cell-based, human
# Experimental: as §4
# Mock- and KSHV-infected DMVEC were cultured in growth factor depleted medium in the absence and presence of recombinant SCF and proliferation was measured using an XTT-based dye reduction assay^(112).
# KSHV-infected DMVEC [2] = assay: Transformation assay (focus formation, disorganized growth) in post-confluent culture; format: cell-based, human
# Experimental: (§5) To promote a transformed phenotype, KSHV-infected DMVEC were cultured post-confluency in 35 mm Primaria culture dishes. […] Cells were examined daily for evidence of phenotypic change using a phase-contrast microscope and results recorded photographically.
# (§6) To directly test whether KSHV-induction of c-Kit is necessary for virus-induced transformation, the consequence of inhibiting c-Kit signaling in KSHV-transformed DMVEC was evaluated.
# In this approach, a dominant negative c-Kit protein lacking the cytoplasmic ATP-binding and phosphotransferase domains necessary for c-Kit signaling (Ad/c-KitDN) was expressed in KSHV-infected cells using the adenovirus delivery system outlined above.
# human Jurkat T cell line = assay: Proliferation of Jurkat T cell line in response to exogenous IL-2; format: cell-based
# SCLC cell lines = conditions: via inhibition of c-Kit activity; cited from earlier work
# Uninfected DMVEC = system: Uninfected DMVEC
# Experimental: as §5, §6
# [3] = 5 μM Haloperidol for 1 hour prior to PMA addition
compound,measurement,setting,value
Ht-31: peptide derived from the PKA R-II binding domain of human thyroid AKAP; inhibits AKAP/PKA interactions (WKNVLQGGESTKERFENSNIGTA),ORF 65 expression,"ORF 65 (lytic gene); 5 μM Ht-31, PMA induction",efficiently repressed
same,ORF 65 expression,"ORF 65 (lytic gene); 25 μM, PMA induction",inhibited; also recorded: efficiently repressed
same,late gene (ORF 65) expression,ORF 65 (lytic gene),inhibited
same,induction of the immediate early gene K3,immediate early gene K3,neither compound prevented induction
same,level of K12 RNA,K12 (latent gene); 25 μM,without affecting
Nc1nc(O)c2ncn(COC(CO)CO)c2n1 [Ganciclovir],late gene (ORF 65) expression,ORF 65 (lytic gene),inhibited
same,latent gene (K12) expression,"K12 (latent gene); compound 1 hour before PMA, 48 hours, concentration not given",did not interfere
O=C(CCCN1CCC(O)(c2ccc(Cl)cc2)CC1)c1ccc(F)cc1 [Haloperidol],ORF 65 expression,ORF 65 (lytic gene); [3],significantly reduced
same,completeness of inhibition of late gene expression compared with Ganciclovir,ORF 65 (lytic gene); 5 μM Haloperidol vs 25 μM Ganciclovir,more complete
same,late gene (ORF 65) expression,ORF 65 (lytic gene),inhibited
same,induction of the immediate early gene K3,immediate early gene K3,neither compound prevented induction
same,expression of the latent K12 gene,K12 (latent gene); [3],did not affect
same,replication of Epstein-Barr Virus in tissue culture,Epstein-Barr Virus (EBV),inhibit
"SCF: recombinant stem cell factor, ligand of c-Kit",SCF concentration of maximal dose-dependent proliferation,mock-infected DMVEC; mock-infected DMVEC,50 to 100 ng/mL
same,increase over basal proliferation in the absence of recombinant SCF,"mock-infected DMVEC; mock-infected cultures, exogenous SCF 20-100 ng/ml",≤ 40%
same,SCF concentration of maximal dose-dependent proliferation,KSHV-infected DMVEC [1]; KSHV-infected DMVEC,50 to 100 ng/mL
same,increase over basal proliferation in the absence of recombinant SCF,"KSHV-infected DMVEC [1]; KSHV-infected DMVEC, exogenous SCF 20-100 ng/ml",≤ 85%
Cc1ccc(NC(=O)c2ccc(CN3CCN(C)CC3)cc2)cc1Nc1nccc(-c2cccnc2)n1 [STI 571],focus formation of KSHV-transformed DMVEC,"KSHV-infected DMVEC [2]; STI 571 0.01-10 μM, 5 days, organized monolayer re-established",inhibited
same,drug concentration at which the effect on the transformed phenotype was complete,KSHV-infected DMVEC [2]; dose-dependent,1 µM
same,effect on capacity to proliferate in response to exogenous IL-2,human Jurkat T cell line,no effect
same,non-specific cytotoxicity (trypan blue exclusion),DMVEC,not due to non-specific cytotoxicity
same,growth of SCLC cell lines in vitro,SCLC cell lines,inhibit
same,effect on cell morphology or viability,Uninfected DMVEC,no effect
same,proliferative response of KSHV-infected DMVEC to exogenous SCF,"KSHV-infected DMVEC [1]; 1 μM dose, SCF 50 ng/ml, XTT assay",completely inhibited
Nc1nc2c(nc(N)n2[C@@H]2O[C@H](CO)[C@@H](O)[C@H]2O)c(=O)[nH]1 [8-aminoguanosine],"viral gene expression (K12, ORF 65)",ORF 65 (lytic gene); 10 μM 8-aminoguanosine,no effect
